Source: patent US6737383B1, “Herbicidal oxadiazolidines” (priority 1999, dated 2004)

Key:
[1] = tested on: rape; assay: Test B pre/postemergence rape; assay type: in vivo, Brassica napus
How it was run: (§1)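 Test chemicals in a non-phytotoxic solvent mixture with surfactant were sprayed preemergence onto planted seeds and postemergence onto plants 2 to 18 cm tall (1- to 4-leaf stage). After twelve to sixteen days in a greenhouse, injury was visually rated against untreated controls from 0 (no effect) to 10 (complete control).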

[2] = tested on: pigweed; assay: Test B pre/postemergence pigweed; assay type: in vivo, Amaranthus retroflexus
How it was run: as §1

[3] = tested on: soybean; assay: Test B pre/postemergence soybean; assay type: in vivo, Glycine max
How it was run: as §1

[4] = tested on: crabgrass; assay: Test B pre/postemergence crabgrass; assay type: in vivo, Digitaria sanguinalis
How it was run: as §1

[5] = tested on: wheat; assay: Test B pre/postemergence wheat; assay type: in vivo, Triticum aestivum
How it was run: as §1

[6] = tested on: blackgrass; assay: Test B pre/postemergence blackgrass; assay type: in vivo, Alopecurus myosuroides
How it was run: as §1

[7] = tested on: velvetleaf; assay: Test B pre/postemergence velvetleaf; assay type: in vivo, Abutilon theophrasti
How it was run: as §1

[8] = tested on: surinam grass; assay: Test B pre/postemergence surinam grass; assay type: in vivo, Brachiaria decumbens
How it was run: as §1

[9] = tested on: bedstraw; assay: Test B pre/postemergence bedstraw; assay type: in vivo, Galium aparine; settings: for Plant response rating, Bedstraw: Rate 125 g/ha, scale of 0 to 10 where 0 is no effect and 10 is complete control
How it was run: as §1

[10] = tested on: morningglory; assay: Test B pre/postemergence morningglory; assay type: in vivo, Ipomoea hederacea
How it was run: as §1

[11] = tested on: purple nutsedge; assay: Test B pre/postemergence purple nutsedge; assay type: in vivo, Cyperus rotundus
How it was run: as §1

[12] = tested on: corn; assay: Test B pre/postemergence corn; assay type: in vivo, Zea mays
How it was run: as §1

[13] = tested on: cocklebur; assay: Test B pre/postemergence cocklebur; assay type: in vivo, Xanthium strumarium
How it was run: as §1

[14] = tested on: sugar beet; assay: Test B pre/postemergence sugar beet; assay type: in vivo, Beta vulgaris
How it was run: as §1

[15] = tested on: wild oat; assay: Test B pre/postemergence wild oat; assay type: in vivo, Avena fatua
How it was run: as §1

[16] = tested on: giant foxtail; assay: Test B pre/postemergence giant foxtail; assay type: in vivo, Setaria faberii
How it was run: as §1

[17] = Preemergence, Rate 125 g/ha, scale of 0 to 10 where 0 is no effect and 10 is complete control
[18] = Preemergence, Rate 250 g/ha, scale 0 (no effect) to 10 (complete control)
[19] = Rate 62 g/ha, Preemergence, scale 0 to 10
[20] = Rate 500 g/ha, Preemergence, scale 0 to 10 (0 no effect, 10 complete control)
[21] = Preemergence, Rate 62 g/ha, scale of 0 to 10 where 0 is no effect and 10 is complete control
[22] = Postemergence, Rate 62 g/ha, scale 0 to 10, 0 is no effect, 10 is complete control
[23] = Postemergence, Rate 125 g/ha, scale of 0 to 10 where 0 is no effect and 10 is complete control
[24] = Rate 250 g/ha, Postemergence, scale 0 to 10, 0 is no effect, 10 is complete control
[25] = Rate 500 g/ha, Postemergence, scale 0 to 10, 0 is no effect, 10 is complete control

Compound: COCC(OC)n1c(=O)on(C(=O)N(c2ccc(F)cc2F)C(C)C)c1=O (stereo not drawn) [Compound 738]
- Plant response rating, Rape [1, 17]: 5
- Rape plant response rating [1, 18]: 6
- Rape plant response rating [1, 19]: 2
- Rape plant response rating [1, 20]: 8
- Plant response rating, Redroot pigweed [2, 17]: 7
- Redroot pigweed plant response rating [2, 18]: 8
- Redroot pigweed plant response rating [2, 19]: 6
- Redroot pigweed plant response rating [2, 20]: 8
- Plant response rating, Soybean [3, 17]: 0
- Soybean plant response rating [3, 18]: 0
- Soybean plant response rating [3, 19]: 0
- Soybean plant response rating [3, 20]: 0
- Plant response rating, Crabgrass [4, 17]: 9
- Crabgrass plant response rating [4, 18]: 9
- Crabgrass plant response rating [4, 19]: 8
- Crabgrass plant response rating [4, 20]: 10
- Plant response rating, Wheat [5, 17]: 4
- Wheat plant response rating [5, 18]: 5
- Wheat plant response rating [5, 19]: 2
- Wheat plant response rating [5, 20]: 8
- Plant response rating, Blackgrass [6, 17]: 10
- Blackgrass plant response rating [6, 18]: 10
- Blackgrass plant response rating [6, 19]: 8
- Blackgrass plant response rating [6, 20]: 10
- Plant response rating, Velvetleaf [7, 17]: 1
- Velvetleaf plant response rating [7, 18]: 6
- Velvetleaf plant response rating [7, 19]: 0
- Velvetleaf plant response rating [7, 20]: 8
- B. signalgrass plant response rating [8, 21]: 6
- Plant response rating, B. signalgrass [8, 17]: 9
- B. signalgrass plant response rating [8, 18]: 10
- B. signalgrass plant response rating [8, 20]: 10
- Plant response rating, Bedstraw ([9]; Preemergence): 0
- Bedstraw plant response rating [9, 18]: 0
- Bedstraw plant response rating [9, 19]: 0
- Bedstraw plant response rating [9, 20]: 0
- Plant response rating, Morningglory [10, 17]: 1
- Morningglory plant response rating [10, 18]: 2
- Morningglory plant response rating [10, 19]: 1
- Morningglory plant response rating [10, 20]: 4
- Nutsedge plant response rating [11, 18]: 4
- Nutsedge plant response rating [11, 20]: 8
- Plant response rating, Corn [12, 17]: 4
- Corn plant response rating [12, 18]: 7
- Corn plant response rating [12, 19]: 0
- Corn plant response rating [12, 20]: 9
- Plant response rating, Cocklebur [13, 17]: 0
- Cocklebur plant response rating [13, 18]: 0
- Cocklebur plant response rating [13, 19]: 0
- Cocklebur plant response rating [13, 20]: 0
- Plant response rating, Sugarbeets [14, 17]: 6
- Sugarbeets plant response rating [14, 18]: 6
- Sugarbeets plant response rating [14, 19]: 3
- Sugarbeets plant response rating [14, 20]: 8
- Plant response rating, Wild oats [15, 17]: 9
- Wild oats plant response rating [15, 18]: 10
- Wild oats plant response rating [15, 19]: 4
- Wild oats plant response rating [15, 20]: 10
- Plant response rating, Giant foxtail [16, 17]: 9
- Giant foxtail plant response rating [16, 18]: 10
- Giant foxtail plant response rating [16, 19]: 8
- Giant foxtail plant response rating [16, 20]: 10

Compound: C#CC(CC)n1c(=O)on(C(=O)N(c2ccc(F)cc2)C(C)C)c1=O (stereo not drawn) [Compound 753]
- Plant response rating, Rape [1, 22]: 0
- Rape plant response rating [1, 23]: 0
- Plant response rating, Rape [1, 17]: 5
- Rape plant response rating [1, 18]: 7
- Rape plant response rating [1, 19]: 2
- Rape plant response rating [1, 24]: 0
- Rape plant response rating [1, 25]: 0
- Rape plant response rating [1, 20]: 7
- Plant response rating, Redroot pigweed [2, 22]: 4
- Redroot pigweed plant response rating [2, 23]: 5
- Plant response rating, Redroot pigweed [2, 17]: 8
- Redroot pigweed plant response rating [2, 18]: 9
- Redroot pigweed plant response rating [2, 19]: 6
- Redroot pigweed plant response rating [2, 24]: 6
- Redroot pigweed plant response rating [2, 25]: 7
- Redroot pigweed plant response rating [2, 20]: 10
- Plant response rating, Soybean [3, 22]: 1
- Plant response rating, Soybean [3, 17]: 0
- Soybean plant response rating [3, 18]: 0
- Soybean plant response rating [3, 19]: 0
- Soybean plant response rating [3, 24]: 4
- Soybean plant response rating [3, 25]: 4
- Soybean plant response rating [3, 20]: 0
- Plant response rating, Crabgrass [4, 22]: 0
- Crabgrass plant response rating [4, 23]: 4
- Plant response rating, Crabgrass [4, 17]: 9
- Crabgrass plant response rating [4, 18]: 9
- Crabgrass plant response rating [4, 19]: 9
- Crabgrass plant response rating [4, 24]: 6
- Crabgrass plant response rating [4, 25]: 9
- Crabgrass plant response rating [4, 20]: 9
- Plant response rating, Wheat [5, 22]: 0
- Plant response rating, Wheat [5, 17]: 0
- Wheat plant response rating [5, 18]: 3
- Wheat plant response rating [5, 19]: 0
- Wheat plant response rating [5, 24]: 0
- Wheat plant response rating [5, 25]: 5
- Wheat plant response rating [5, 20]: 3
- Plant response rating, Blackgrass [6, 22]: 0
- Blackgrass plant response rating [6, 23]: 2
- Plant response rating, Blackgrass [6, 17]: 9
- Blackgrass plant response rating [6, 18]: 9
- Blackgrass plant response rating [6, 19]: 5
- Blackgrass plant response rating [6, 24]: 4
- Blackgrass plant response rating [6, 25]: 4
- Blackgrass plant response rating [6, 20]: 9
- Plant response rating, Velvetleaf [7, 22]: 0
- Plant response rating, Velvetleaf [7, 17]: 0
- Velvetleaf plant response rating [7, 19]: 0
- Velvetleaf plant response rating [7, 24]: 2
- Velvetleaf plant response rating [7, 25]: 2
- Velvetleaf plant response rating [7, 20]: 2
- Plant response rating, B. signalgrass [8, 22]: 0
- B. signalgrass plant response rating [8, 23]: 0
- B. signalgrass plant response rating [8, 21]: 2
- Plant response rating, B. signalgrass [8, 17]: 7
- B. signalgrass plant response rating [8, 18]: 9
- B. signalgrass plant response rating [8, 24]: 2
- B. signalgrass plant response rating [8, 25]: 7
- B. signalgrass plant response rating [8, 20]: 9
- Plant response rating, Bedstraw ([9]; Preemergence): 0
- Bedstraw plant response rating [9, 18]: 3
- Bedstraw plant response rating [9, 19]: 0
- Bedstraw plant response rating [9, 25]: 6
- Bedstraw plant response rating [9, 20]: 3
- Morningglory plant response rating [10, 23]: 2
- Plant response rating, Morningglory [10, 17]: 0
- Morningglory plant response rating [10, 18]: 0
- Morningglory plant response rating [10, 19]: 0
- Morningglory plant response rating [10, 24]: 9
- Morningglory plant response rating [10, 25]: 10
- Morningglory plant response rating [10, 20]: 0
- Plant response rating, Nutsedge [11, 22]: 0
- Nutsedge plant response rating [11, 23]: 0
- Plant response rating, Nutsedge [11, 17]: 0
- Nutsedge plant response rating [11, 18]: 0
- Nutsedge plant response rating [11, 19]: 0
- Nutsedge plant response rating [11, 24]: 2
- Nutsedge plant response rating [11, 25]: 3
- Nutsedge plant response rating [11, 20]: 0
- Plant response rating, Corn [12, 22]: 0
- Corn plant response rating [12, 23]: 0
- Plant response rating, Corn [12, 17]: 0
- Corn plant response rating [12, 18]: 0
- Corn plant response rating [12, 19]: 0
- Corn plant response rating [12, 24]: 0
- Corn plant response rating [12, 25]: 1
- Corn plant response rating [12, 20]: 0
- Plant response rating, Cocklebur [13, 22]: 0
- Cocklebur plant response rating [13, 23]: 0
- Plant response rating, Cocklebur [13, 17]: 0
- Cocklebur plant response rating [13, 18]: 0
- Cocklebur plant response rating [13, 19]: 0
- Cocklebur plant response rating [13, 24]: 0
- Cocklebur plant response rating [13, 25]: 4
- Cocklebur plant response rating [13, 20]: 2
- Plant response rating, Sugarbeets [14, 22]: 0
- Plant response rating, Sugarbeets [14, 17]: 0
- Sugarbeets plant response rating [14, 18]: 1
- Sugarbeets plant response rating [14, 19]: 0
- Sugarbeets plant response rating [14, 24]: 5
- Sugarbeets plant response rating [14, 25]: 5
- Sugarbeets plant response rating [14, 20]: 8
- Plant response rating, Wild oats [15, 22]: 0
- Plant response rating, Wild oats [15, 17]: 4
- Wild oats plant response rating [15, 18]: 8
- Wild oats plant response rating [15, 19]: 0
- Wild oats plant response rating [15, 24]: 0
- Wild oats plant response rating [15, 25]: 2
- Wild oats plant response rating [15, 20]: 9
- Plant response rating, Giant foxtail [16, 22]: 3
- Giant foxtail plant response rating [16, 23]: 8
- Plant response rating, Giant foxtail [16, 17]: 9
- Giant foxtail plant response rating [16, 18]: 9
- Giant foxtail plant response rating [16, 19]: 9
- Giant foxtail plant response rating [16, 24]: 8
- Giant foxtail plant response rating [16, 25]: 9
- Giant foxtail plant response rating [16, 20]: 9
